Source: US7622446B2, “Polypeptides, derivatives and uses thereof” (The Open University, priority 2001, dated 2009)
No end group written: not given here.

Legend:
Assay type in all cases: in vivo, chick
[1] = system: chicks; assay: APP-antisense induced amnesia, passive avoidance task, strong training; conditions: for effect on APP-antisense induced amnesia (percent avoidance): FIG. 5
Method: Commercially obtained Ross Chunky eggs were incubated and hatched in brooders and held until 16±6 hours old. Chicks were placed in pairs in small aluminium pens. Following an equilibration period of an hour, the chicks were pretrained and trained essentially as described by Lossner and Rose (J. Neurochem. 41, 1357-1363 (1983), the contents of which are incorporated herein by reference). Pretraining involved three 10 s presentations of a small (2 mm diameter) white bead, at approximately 5 minute intervals. […] Two training techniques were used: “strong” and “weak” training. In both, 5 to 10 minutes after the last pre-training trial, chicks were trained by a 10 s presentation of a 4 mm diameter chrome bead, which had been dipped in the bitter-tasting methylanthranilate. Control chicks pecked at a water-coated or dry bead. In the “strong” version of the task, 100% methylanthranilate was used. In the “weak” version, 10% methylanthranilate was used. Chicks spontaneously pecked at the training or control beads within 20 s. Chicks that peck at the bitter bead evinced a disgust reaction and would not normally peck at a similar, but dry bead for some hours subsequently. At various times following training chicks were tested, by offering them a dry 4 mm diameter chrome bead, followed 10 minutes later by a small (2 mm diameter) white bead, each for 20 to 30 s. Animals were tested by an experimenter blind as to which treatment each chick had received. Chicks are considered to remember the task if they avoid the chrome bead at test but peck at the white bead (discriminate), and to have forgotten it if they peck at both beads. Recall is calculated as a percent avoidance score (percentage of chicks which avoid the chrome bead) and as a discrimination score (percentage of chicks which avoid the chrome but peck at the white bead). […]
Bilateral intracranial injections ([…]) of either saline, or solutions in saline of different peptides (0.5 to 5 μg/hemisphere) homologous to different regions of the external domain of human APP were injected intracerebrally into a specific brain region, known to be required for memory formation (the intermediate hyperstriatum ventrale) at different time-points pre- or post-training using a […] fitted with a plastic sleeve to allow a penetration of 3 mm. […] Correct placement was ensured by using a specially designed headholder described by Davis et al (Physiol. Behav. 22, 177-184 (1979), the contents of which are incorporated herein by reference) and was routinely visually monitored postmortem. […]

[2] = system: chicks; assay: Memory enhancement on weak training (10% methylanthranilate), passive avoidance task; conditions: for effect of differing doses on weak training (percent avoidance): 30 mins before training, RER 0.2, 1.0, 2.0 μg/hemisphere, Ac-RER 4.0, 6.0 μg/hemisphere
Method: (§1) Commercially obtained Ross Chunky eggs were incubated and hatched in brooders and held until 16±6 hours old. Chicks were placed in pairs in small aluminium pens. Following an equilibration period of an hour, the chicks were pretrained and trained essentially as described by Lossner and Rose (J. Neurochem. 41, 1357-1363 (1983), the contents of which are incorporated herein by reference). Pretraining involved three 10 s presentations of a small (2 mm diameter) white bead, at approximately 5 minute intervals. […] Two training techniques were used: “strong” and “weak” training. In both, 5 to 10 minutes after the last pre-training trial, chicks were trained by a 10 s presentation of a 4 mm diameter chrome bead, which had been dipped in the bitter-tasting methylanthranilate. Control chicks pecked at a water-coated or dry bead. In the “strong” version of the task, 100% methylanthranilate was used. In the “weak” version, 10% methylanthranilate was used. Chicks spontaneously pecked at the training or control beads within 20 s. Chicks that peck at the bitter bead evinced a disgust reaction and would not normally peck at a similar, but dry bead for some hours subsequently. At various times following training chicks were tested, by offering them a dry 4 mm diameter chrome bead, followed 10 minutes later by a small (2 mm diameter) white bead, each for 20 to 30 s. Animals were tested by an experimenter blind as to which treatment each chick had received. Chicks are considered to remember the task if they avoid the chrome bead at test but peck at the white bead (discriminate), and to have forgotten it if they peck at both beads. Recall is calculated as a percent avoidance score (percentage of chicks which avoid the chrome bead) and as a discrimination score (percentage of chicks which avoid the chrome but peck at the white bead). […] Each chick was trained and tested only once and differences between groups tested for statistical significance by g-test described by Sokal and Rohlf (Biometry: the Principles and Practice of Statistics in Biological Research (2nd edition), W H Freeman, New York (1981)), the contents of which are incorporated herein by reference. The validity of this particular training task used to assess memory formation is extensively discussed by Andrew (Neural and Behavioural Plasticity: the Use of the Domestic Chick as a Model, Oxford University Press, Oxford, UK (1991), the contents of which are incorporated herein by reference.
(§2) Thus the learning experience is not committed to long-term memory. Agents that are memory enhancers can thus be tested. A memory enhancing agent, administered to a chick trained on the weak learning task, produces an increase in retention—increased avoidance of the chrome bead—at 24 hours. That is, such memory enhancers help convert weak to strong learning by enabling the transition from shorter to longer-term memory.
Bilateral intracranial injections ([…]) of either saline, or solutions in saline of different peptides (0.5 to 5 μg/hemisphere) homologous to different regions of the external domain of human APP were injected intracerebrally into a specific brain region, known to be required for memory formation (the intermediate hyperstriatum ventrale) at different time-points pre- or post-training using a […] fitted with a plastic sleeve to allow a penetration of 3 mm. After completion of the injection, the needle was kept in place for 5 s. Correct placement was ensured by using a specially designed headholder described by Davis et al (Physiol. Behav. 22, 177-184 (1979), the contents of which are incorporated herein by reference) and was routinely visually monitored postmortem. Peptides or other substances were administered at various times either before or after the training protocol. Chicks were tested at different time points post-training as described above. […]

[3] = system: chicks; assay: β-amyloid 12-28 induced amnesia, passive avoidance task, strong training
Method: as §1, §2
Bilateral intracranial injections ([…]) of either saline, or solutions in saline of different peptides (0.5 to 5 μg/hemisphere) homologous to different regions of the external domain of human APP were injected intracerebrally into a specific brain region, known to be required for memory formation (the intermediate hyperstriatum ventrale) at different time-points pre- or post-training using a […] fitted with a plastic sleeve to allow a penetration of 3 mm. After completion of the injection, the needle was kept in place for 5 s. Correct placement was ensured by using a specially designed headholder described by Davis et al (Physiol. Behav. 22, 177-184 (1979), the contents of which are incorporated herein by reference) and was routinely visually monitored postmortem. Peptides or other substances were administered at various times either before or after the training protocol. Chicks were tested at different time points post-training as described above.

[4] = system: chicks; assay: anti-APP (mb22C11) induced amnesia, passive avoidance task; conditions: FIG. 4; mb22C11 30 minutes pretraining, peptide 5 minutes pretraining; memory tested 24 hours posttraining
Method: Commercially obtained Ross Chunky eggs were incubated and hatched in brooders and held until 16±6 hours old. Chicks were placed in pairs in small aluminium pens. Following an equilibration period of an hour, the chicks were pretrained and trained essentially as described by Lossner and Rose (J. Neurochem. 41, 1357-1363 (1983), the contents of which are incorporated herein by reference). Pretraining involved three 10 s presentations of a small (2 mm diameter) white bead, at approximately 5 minute intervals. […] Two training techniques were used: “strong” and “weak” training. In both, 5 to 10 minutes after the last pre-training trial, chicks were trained by a 10 s presentation of a 4 mm diameter chrome bead, which had been dipped in the bitter-tasting methylanthranilate. Control chicks pecked at a water-coated or dry bead. In the “strong” version of the task, 100% methylanthranilate was used. In the “weak” version, 10% methylanthranilate was used. Chicks spontaneously pecked at the training or control beads within 20 s. Chicks that peck at the bitter bead evinced a disgust reaction and would not normally peck at a similar, but dry bead for some hours subsequently. […] Recall is calculated as a percent avoidance score (percentage of chicks which avoid the chrome bead) and as a discrimination score (percentage of chicks which avoid the chrome but peck at the white bead). […]

[5] = FIGS. 7-9, peptide 30 minutes pretraining, memory tested 24 hours posttraining
[6] = AS oligodeoxynucleotide 12 hours pretraining, peptide 30 minutes pretraining, strong learning task
[7] = FIG. 10, 2 μg/hemisphere 20 mins prior to training after β-amyloid 12-28 (2 μg/hemisphere) 30 mins prior to training, measured 20 mins after administration

## AS oligodeoxynucleotide: 16-mer end-protected phosphodiester oligodeoxynucleotide 5′-CCC GAG GAC TGA GCC A-3′ (SEQ ID No: 21) against APP mRNA, antisense form (antisense CCCGAGGACTGAGCCA; end-protected phosphodiester DNA, nucleotides 2 and 13 modified, nature not given here) [reference compound]
[1]; FIG. 5a, 0.6 to 1.0 μg in 2 μl, 12 hours pretraining, strong learning task
  effect of oligodeoxynucleotide on memory (percent avoidance): had a significant effect of memory loss

## AKERLEAKHRERMSQVM [APP 319-335]
[1]; FIG. 6, AS oligodeoxynucleotide 12 hours pretraining, peptide 30 minutes pretraining, tested 30 minutes posttraining
  effect on APP-antisense induced amnesia (percent avoidance: total avoidance and discrimination): can prevent antisense induced memory loss
[2]; [5]
  effect on weak training (percent avoidance): enhance memory at 24 hours

## Arg-Glu-Arg-Met-Ser (RERMS)
[3]; FIG. 3, β-amyloid 12-28 30 minutes pretraining, peptide 20 minutes pretraining, memory tested 24 hours posttraining
  effect on β-amyloid 12-28 induced amnesia (percent avoidance): memory retention is restored
[4]
  effect on anti-APP induced amnesia (percent avoidance): will prevent antibody induced memory loss
[1]; [6]
  effect on APP-antisense induced amnesia (percent avoidance): avoided to a substantial extent
[2]; [5]
  effect on weak training (percent avoidance): enhance memory at 24 hours

## CC(=O)NC(CCCNC(=N)N)C(=O)NC(CCC(=O)O)C(=O)OC(CCCNC(=N)N)C(=O)O (centres unmarked) [Ac-RER]
[3]; [7]
  effect on β-amyloid 12-28 induced amnesia (percent avoidance): less than that of RER
[3]; FIG. 10, 2 μg/hemisphere 20 mins prior to training after β-amyloid 12-28 (2 μg/hemisphere) 30 mins prior to training, measured 20 mins after administration, listed as AC-RER
  effect on β-amyloid 12-28 induced amnesia (percent avoidance): have the effect of restoring memory
[3]; FIG. 10, inferred from memory-restorative effect compared with RER
  stability after administration (indicated by FIG. 10 results): more stable after administration
[3]; FIG. 13, 4 μg/hemisphere 60, 20 or 30 mins prior to training (before, after or together with β-amyloid 12-28 2 μg/hemisphere)
  effect on β-amyloid 12-28 induced amnesia (percent avoidance): has the effect of restoring memory
[2]; FIG. 11, 2 μg/hemisphere 30 mins before training
  effect on weak training (percent avoidance): has the effect of improving the memory of weakly trained chicks
[2]; FIG. 11, 2 μg/hemisphere 60 mins before training
  effect on weak training (percent avoidance): still significant, although less than 30 minutes after administration
[2]; FIG. 12
  effect of differing doses on weak training (percent avoidance): have the effect of improving the memory of weakly-trained chicks
[2]; FIG. 12, Ac-RER compared with RER
  dose required to obtain a comparable effect on weak training: higher doses of Ac-RER than of RER
[2]; FIG. 12, inferred from the doses required
  stability after administration (indicated by FIG. 12 results): more stable after administration than RER

## Arg-Ser-Ala-Glu-Arg (RSAER) [reference compound]
[1]; [6]
  effect on APP-antisense induced amnesia (percent avoidance): absent

## Arg-Glu-Arg (RER)
[3]; [7]
  effect on β-amyloid 12-28 induced amnesia (percent avoidance): have the effect of restoring memory
[2]; FIG. 12
  effect of differing doses on weak training (percent avoidance): have the effect of improving the memory of weakly-trained chicks
[2]; [5]
  effect on weak training (percent avoidance): enhances memory at 24 hours
